Measurements published in ChEMBL document CHEMBL5120891, “Beyond Proteolysis-Targeting Chimeric Molecules: Designing Heterobifunctional Molecules Based on Functional Effectors” (J Med Chem, 2022).

Molecular target: T1, Macrophage migration inhibitory factor (Homo sapiens) (UniProt P14174)
T1 sequence (whole entry): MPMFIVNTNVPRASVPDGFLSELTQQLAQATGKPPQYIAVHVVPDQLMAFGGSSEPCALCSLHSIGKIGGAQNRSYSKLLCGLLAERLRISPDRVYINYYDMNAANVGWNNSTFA
Assay: LYTAC activity at ASGPR/MIF (unknown origin) by cell based assay

- Activity: > 1 µM
SMILES: CC(=O)N[C@H]1[C@H](OCCOCCOCCNC(=O)CCOCC(COCCC(=O)NCCOCCOCCO[C@@H]2O[C@H](CO)[C@H](O)[C@H](O)[C@H]2NC(C)=O)(COCCC(=O)NCCOCCOCCO[C@@H]2O[C@H](CO)[C@H](O)[C@H](O)[C@H]2NC(C)=O)NC(=O)CNC(=O)CCCOc2ccc3nc(-c4cn(-c5ccc(O)c(F)c5)nn4)ccc3c2)O[C@H](CO)[C@H](O)[C@@H]1O
